Tests used:
Assay type in all cases: in vivo, mouse
[1] = system: OPN knockout (OPN-KO) mice; assay: Determination of cortical bone thickness and area after PTH treatment, OPN-KO mice; details: PTH(+) group, 80 μg/kg s.c., 4 weeks, femoral mid-diaphysis
Procedure: Horizontal sections were prepared from the femoral mid-diaphysis and tomographed using an X-ray microtomograph Musashi (Nittetsu-ELEX, Osaka, Japan). A Luzex-F automated image analysis system (Nireco, Tokyo, Japan) was then used for analysis of the image data to determine the thickness and area of cortical bone. The thickness was evaluated at the mean value averaged over 8 measurements every 45°.
(§1) To create an animal model in which the in vivo effects of OPN were inhibited, strain 129 female mice at 7 weeks of age were modified into knockout mice deficient in the OPN gene (OPN-KO mice), as described in Rittling et al. J. Bone Miner. Res., 13: 1101-1111, 1998. These mice were singly used for PTH treatment test. They were divided into groups of 6 mice each.
(§2) Recombinant human PTH(1-34) (Bachem, Torrance, Calif.) was dissolved in acidified physiological saline supplemented with 0.1% bovine serum albumin (Sigma Chemical Co.-Aldrich, St. Louis, Mo.). The OPN-KO mice were subcutaneously administered with 80 μg/kg of body weight human PTH(1-34) for 4 weeks on a five-days-a-week basis. Mice in the control group were administered with physiological saline alone.

[2] = system: OPN knockout (OPN-KO) mice; assay: BFR and MAR in cancellous bone (distal end of femur) after PTH treatment, OPN-KO mice
Procedure: BFR denotes bone formation rate per unit trabecular area (μm^3/μm^2/day).
MAR denotes the rate of increase in the distance between labeled calcified bands (μm/day).
In the case of cancellous bone, decalcified sagittal sections were prepared from the metaphyseal region and analyzed for BFR and MAR in a 1.4 mm^2 square area located 0.2 mm apart from the growth plate of the distal end of femur. Labeling was accomplished by subcutaneous administration of xylenol orange (100 mg/kg of body weight) 4 days before and calcein 2 days before sampling.
as §1, §2

[3] = system: OPN knockout (OPN-KO) mice; assay: Determination of TRAP-positive cells (osteoclasts) after PTH treatment, OPN-KO mice; details: PTH(+) group, 80 μg/kg s.c., 4 weeks
Procedure: (§3) After treatment with PTH, forefoot bone was excised from each animal. Each bone was rinsed with PBS, fixed for 7 days in 4% paraformaldehyde acid and decalcified for 3 days in 10% EDTA (pH 7.4), followed by dehydration and embedding in paraffin. Serial sections of 7 μm thickness were prepared from paraffin blocks and stained to measure TRAP (tartrate resistant acid phosphatase) activity, with Alcian blue for counter-staining. Among TRAP-positive cells attached to cancellous bone, those having at least three nuclei were counted using 15 serial sections of 7 μm thickness prepared from each bone. Each of the 15 sections was taken at five-section intervals from a total of 75 sections per bone. The number of multinucleated TRAP-positive cells in all 15 sections was summed to give the total number of osteoclasts per unit trabecular perimeter.
as §1
Recombinant human PTH(1-34) (Bachem, Torrance, Calif.) was dissolved in acidified physiological saline supplemented with 0.1% bovine serum albumin (Sigma Chemical Co.-Aldrich, St. Louis, Mo.). […]

[4] = system: OPN knockout (OPN-KO) mice; assay: Analysis of urinary deoxypyridinoline (Dpyr) after PTH treatment, OPN-KO mice
Procedure: At 26 days after treatment with PTH, a 24-hour urine sample was collected from each mouse (10 samples per group). As a marker of bone metabolism, the level of urinary deoxypyridinoline (Dpyr) was measured for each sample using an ELISA kit (Metra Biosystems, San Diego, Calif.) in accordance with the manufacturer's protocol.
as §1, §2

[5] = system: wild-type strain 129 female mice; assay: Determination of cancellous bone mass (BV/TV) after PTH treatment, wild-type mice; details: WT mice, PTH(+) group, 80 μg/kg s.c., 4 weeks, five days a week
Procedure: Sagittal sections were prepared from the metaphyseal region of femur and tomographed using an X-ray microtomograph Musashi (Nittetsu-ELEX, Osaka, Japan). A Luzex-F automated Image analysis system (Nireco, Tokyo, Japan) was then used for analysis of the image data from a 1.47 mm^2 square area (0.7 mm×2.1 mm) located 0.2 mm apart from the growth plate of the distal end of femur to obtain BV/TV values. BV/TV (bone volume/total tissue volume) denotes the unit bone mass (%), i.e., the percentage of the total trabecular volume in the total tissue volume. Namely, an increase in BV/TV means an increase in calcified bone. Recombinant human PTH(1-34) (Bachem, Torrance, Calif.) was dissolved in acidified physiological saline supplemented with 0.1% bovine serum albumin (Sigma Chemical Co.-Aldrich, St. Louis, Mo.). The OPN-KO mice were subcutaneously administered with 80 μg/kg of body weight human PTH(1-34) for 4 weeks on a five-days-a-week basis. Mice in the control group were administered with physiological saline alone. The effect of PTH on bone metabolism was also examined in the same manner as shown in Example 1, using wild-type strain 129 female mice (7 weeks of age). These mice were divided into groups of 6 mice each.

[6] = system: wild-type strain 129 female mice; assay: Determination of TRAP-positive cells (osteoclasts) after PTH treatment, wild-type mice; details: WT mice, PTH(+) group, 80 μg/kg s.c., 4 weeks
Procedure: as §3, with “perimeter. Recombinant human PTH(1-34) (Bachem, Torrance, Calif.) was dissolved in acidified physiological saline supplemented with 0.1% bovine serum albumin (Sigma Chemical Co.-Aldrich, St. Louis, Mo.). The OPN-KO mice were subcutaneously administered with 80 μg/kg of body weight human PTH(1-34) for 4 weeks on a five-days-a-week basis. Mice in the control group were administered with physiological saline alone. The effect of PTH on bone metabolism was also examined in the same manner as shown in Example 1, using wild-type strain 129 female mice (7 weeks of age). […]” for “perimeter.”

[7] = OPN-KO mice, PTH(+) group, 80 μg/kg s.c., 4 weeks, distal end of femur
[8] = OPN-KO mice, PTH(+) vs PTH(−) group, p<0.05
[9] = cancellous bone, OPN-KO vs WT mice, p<0.05

human PTH(1-34)
area of cortical bone [1]: 0.88±0.13 mm^2 | thickness of cortical bone [1]: 0.26±0.04 mm | BFR in cancellous bone [2, 7]: 2.68±0.34 μm^3/μm^2/day | MAR in cancellous bone [2, 7]: 6.21±1.11 μm/day | fold increase in cancellous BFR by PTH treatment [2, 8]: ~2.1 fold | fold increase in cancellous MAR by PTH treatment [2, 8]: ~1.7 fold | elevation in the magnitude of PTH-induced increase in BFR caused by lack of OPN [2, 9]: ~1.3 fold | elevation in the magnitude of PTH-induced increase in MAR caused by lack of OPN [2, 9]: about 1.4 fold | number of osteoclasts per unit trabecular perimeter of cancellous bone [3]: 7.6±1.0 cells/mm | urinary Dpyr level ([4]; PTH(+) group, 24-hour urine at 26 days): 34.67±4.52 nM/mM Cr | fold increase in systemic bone resorption (urinary Dpyr) by PTH treatment ([4]; PTH(+) vs PTH(−) group, p<0.05): ~1.2 fold | cancellous bone mass BV/TV [5]: 21.17±2.68% | number of osteoclasts per unit trabecular perimeter of cancellous bone trabeculae [6]: 9.2±1.8 cells/mm

— patent US20080076711A1, “Therapeutic agents for osteopenia” (Chugai Seiyaku Kabushiki Kaisha, priority 2001, published 2008)
